# Where two headings read alike, the source gives them in different places.
# Experiments:
# Phytophthora infestans [1] = experiment: microbe, parasite or virus in culture; format: cell-based; details: for Efficacy in % of the untreated control: individual active compound, microtiter test, day 7
# Phakopsora pachyrhizi = experiment: Curative control of soy bean rust on soy beans caused by Phakopsora pachyrhizi (greenhouse); format: in vivo; details: individual active compound, 14 days
# Method: (§1) Preparation: The spray solutions were prepared in several steps:
# (§2) A stock solution was prepared: a mixture of acetone and/or DMSO and the wetting agent/emulsifier Uniperol, which is based on ethoxylated alkylphenoles, in a relation (volume) solvent-emulsifier of 99 to 1 was added to 25 mg of the compound to give a total of 10 ml. Water was then added to total volume of 100 ml.
# (§3) This stock solution was diluted with the described solvent-emulsifier-water mixture to the given concentration.
# Leaves of pot-grown soy bean seedlings were inoculated with spores of Phakopsora pachyrhizi. To ensure the success the artificial inoculation, the plants were transferred to a humid chamber with a relative humidity of about 95% and 23 to 27° C. for 24 h. The next day the plants were sprayed to run-off with an aqueous suspension, containing the concentration of active ingredient as described below. The plants were allowed to air-dry. Then the trial plants were cultivated for 14 days in a greenhouse chamber at 23-27° C. and a relative humidity between 60 and 80%. The extent of fungal attack on the leaves was visually assessed as % diseased leaf area.
# (§4) Evaluation was carried out analogously to example 1.
# Phytophthora infestans [2] = format: in vivo; details: individual active compound, tomato, 6 days after inoculation
# Septoria tritici = experiment: Activity against Septoria tritici in the microtiter test; format: cell-based; details: individual active compound, day 7
# Plasmopara viticola = experiment: Fungicidal control of grape downy mildew caused by Plasmopara viticola (greenhouse); format: in vivo; details: individual active compound
# Method: as §1, §2, §3
# Grape cuttings were grown in pots to the 4 to 5 leaf stage. These plants were sprayed to run-off with an aqueous suspension, containing the concentration of active ingredient or their mixture mentioned in the table below. The plants were allowed to air-dry. The next day they were inoculated with an aqueous spore suspension of Plasmopara viticola by spraying it at the lower leaf-side. Then the trial plants were immediately transferred for 24 h to a humid chamber with 22-24° C. and a relative humidity close to 100%. For a period of 5 days, cultivation followed in a greenhouse at 20-25° C. and a relative humidity about 50-80%. To stimulate the outbreak of the disease symptoms, the plants were transferred to a humid chamber again for 24 hours. Then the extent of fungal attack on the lower leaf surface was visually assessed as % diseased leaf area.
# as §4
# Botrytis cinerea = experiment: Preventative control of grey mold (Botrytis cinerea) on leaves of green pepper (greenhouse); format: in vivo; details: individual active compound, 5 days after inoculation
# Method: as §1, §2, §3
# Young seedlings of green pepper were grown in pots to the 2 to 3 leaf stage. These plants were sprayed to run-off with an aqueous suspension, containing the concentration of active ingredient or their mixture mentioned in the table below. The next day the treated plants were inoculated with a spore suspension of Botrytis cinerea in a 2% aqueous biomalt solution. Then the trial plants were immediately transferred to a dark, humid chamber. After 5 days at 22 to 24° C. and a relative humidity close to 100% the extent of fungal attack on the leaves was visually assessed as % diseased leaf area.
# as §4
# [3] = Phytophthora infestans, 168 h, read-out: Efficacy in % of the untreated control
smiles,measurement,setting,value
CN/C(=N\[N+](=O)[O-])NCc1cnc(Cl)s1 [Clothianidin],inhibition of growth at 1 ppm,Phytophthora infestans [1]; [3],2%
same,inhibition of growth at 4 ppm,Phytophthora infestans [1]; [3],2%
same,inhibition of growth at 16 ppm,Phytophthora infestans [1]; [3],11%
"CCNC(=NNc1c(Cl)cc(C(F)(F)F)cc1Cl)C1(C)CC1(Cl)Cl (stereo not drawn) [A.23-1, N-R′-2,2-dihalo-1-R″cyclo-propanecarboxamide-2-(2,6-dichloro-α,α,α-fluoro-p-tolyl)hydrazone, wherein R′ is ethyl, halo is chloro, and R″ is methyl]",Efficacy in % of the untreated control,Phakopsora pachyrhizi; 63 ppm in the spray liquor,0%
same,Efficacy in % of the untreated control,Phytophthora infestans [1]; 1 ppm,10%
same,Efficacy in % of the untreated control,Phytophthora infestans [1]; 4 ppm,15%
same,Efficacy in % of the untreated control,Phytophthora infestans [1]; 16 ppm,15%
"O=[N+]([O-])NC1=NCCN1Cc1ccc(Cl)nc1 [Imidacloprid, reference compound]",Efficacy in % of the untreated control,Phytophthora infestans [2]; 16 ppm in the spray liquor,22%
same,inhibition of growth at 1 ppm,Phytophthora infestans [1]; [3],5%
same,inhibition of growth at 4 ppm,Phytophthora infestans [1]; [3],6%
same,inhibition of growth at 16 ppm,Phytophthora infestans [1]; [3],11%
"CCCCCCCCc1c(COC)nc2ncnn2c1N [Tab. 1, # I-245, 5-methoxymethyl-6-octyl-[1,2,4]triazolo[1,5-a]pyrimidin-7-ylamine]",Efficacy in % of the untreated control,Phytophthora infestans [2]; 16 ppm in the spray liquor,0%
same,Efficacy in % of the untreated control,Septoria tritici; 16 ppm,4%
same,Efficacy in % of the untreated control,Phakopsora pachyrhizi; 4 ppm in the spray liquor,0%
same,Efficacy in % of the untreated control,Phakopsora pachyrhizi; 16 ppm in the spray liquor,0%
same,inhibition of growth at 0.25 ppm,Phytophthora infestans [1]; [3],10%
"N#Cc1nn(-c2c(Cl)cc(C(F)(F)F)cc2Cl)c(N)c1[S+]([O-])C(F)(F)F (stereo not drawn) [Fipronil, reference compound]",Efficacy in % of the untreated control,Phytophthora infestans [2]; 16 ppm in the spray liquor,0%
same,Efficacy in % of the untreated control,Phytophthora infestans [2]; 63 ppm in the spray liquor,0%
same,Efficacy in % of the untreated control,Plasmopara viticola; 16 ppm in the spray liquor,0%
same,Efficacy in % of the untreated control,Botrytis cinerea; 63 ppm in the spray liquor,10%
same,inhibition of growth at 1 ppm,Phytophthora infestans [1]; [3],1%
same,inhibition of growth at 4 ppm,Phytophthora infestans [1]; [3],16%
same,inhibition of growth at 16 ppm,Phytophthora infestans [1]; [3],20%
"Cc1nc2ncnn2c(N)c1-c1ccc(Cl)c(Cl)c1 [Tab. 1, I-9, 6-(3,4-dichlorophenyl)-5-methyl-[1,2,4]triazolo[1,5-a]pyrimidin-7-ylamine]",Efficacy in % of the untreated control,Septoria tritici; 16 ppm,12%
same,Efficacy in % of the untreated control,Plasmopara viticola; 4 ppm in the spray liquor,0%
same,inhibition of growth at 1 ppm,Phytophthora infestans [1]; [3],64%
"CCCCCCCCc1c(CC)nc2ncnn2c1N [Tab. 1, I-110, 5-ethyl-6-octyl-[1,2,4]triazolo[1,5-a]pyrimidin-7-ylamine]",inhibition of growth at 1 ppm,Phytophthora infestans [1]; [3],7%
"CNC(=O)Oc1cccc2c1OC(C)(C)C2 [Carbofuran, reference compound]",Efficacy in % of the untreated control,Phytophthora infestans [2]; 16 ppm in the spray liquor,0%
same,Efficacy in % of the untreated control,Phakopsora pachyrhizi; 16 ppm in the spray liquor,0%
same,inhibition of growth at 1 ppm,Phytophthora infestans [1]; [3],6%
same,inhibition of growth at 4 ppm,Phytophthora infestans [1]; [3],8%
same,inhibition of growth at 16 ppm,Phytophthora infestans [1]; [3],12%
"CCCCCCCCc1nc2ncnn2c(N)c1CC [Tab. 1, # I-290, 6-ethyl-5-octyl-[1,2,4]triazolo[1,5-a]pyrimidin-7-ylamine]",Efficacy in % of the untreated control,Plasmopara viticola; 4 ppm in the spray liquor,0%
same,Efficacy in % of the untreated control,Plasmopara viticola; 16 ppm in the spray liquor,56%
same,Efficacy in % of the untreated control,Botrytis cinerea; 16 ppm in the spray liquor,0%
CC1(C)C(C=C(Cl)Cl)C1C(=O)OC(C#N)c1cccc(Oc2ccccc2)c1 (stereo not drawn) [α-Cypermetrin],Efficacy in % of the untreated control,Plasmopara viticola; 63 ppm in the spray liquor,0%
CC1(C)C(C=C(Cl)Cl)C1C(=O)OC(C#N)c1cccc(Oc2ccccc2)c1 (stereo not drawn) [alpha-Cypermethrin],inhibition of growth at 4 ppm,Phytophthora infestans [1]; [3],7%
same,inhibition of growth at 16 ppm,Phytophthora infestans [1]; [3],9%
CC1(C)C(C=C(Cl)Cl)C1C(=O)OC(C#N)c1cccc(Oc2ccccc2)c1 (stereo not drawn) [α-Cypermethrin],Efficacy in % of the untreated control,Septoria tritici; 63 ppm,9%
N#Cc1ccc(C/C(=N\NC(=O)Nc2ccc(OC(F)(F)F)cc2)c2cccc(C(F)(F)F)c2)cc1 [Metaflumizon],Efficacy in % of the untreated control,Septoria tritici; 63 ppm,0%
same,Efficacy in % of the untreated control,Plasmopara viticola; 16 ppm in the spray liquor,0%
same,Efficacy in % of the untreated control,Phytophthora infestans [1]; 4 ppm,6%
same,Efficacy in % of the untreated control,Phytophthora infestans [1]; 16 ppm,12%
C/C(=N\C#N)N(C)Cc1ccc(Cl)nc1 [Acetamipyrid],Efficacy in % of the untreated control,Plasmopara viticola; 16 ppm in the spray liquor,0%
same,Efficacy in % of the untreated control,Phytophthora infestans [1]; 4 ppm,7%
same,Efficacy in % of the untreated control,Phytophthora infestans [1]; 16 ppm,9%
"CCc1nc2ncnn2c(N)c1CCC(C)CC(C)(C)C (stereo not drawn) [Tab. 1, # I-113, 5-ethyl-6-(3,5,5-trimethylhexyl)[1,2,4]triazolo[1,5-a]pyrimidin-7-ylamine]",Efficacy in % of the untreated control,Phytophthora infestans [2]; 4 ppm in the spray liquor,22%
same,inhibition of growth at 4 ppm,Phytophthora infestans [1]; [3],11%

# From patent publication US20100093531A1 (priority 2007, published 2010)
